Source: patent US20100204111A1 (priority 2007, published 2010)
Bridges are numbered along the chain shown (N, C = ends). Where no end group is shown, it is not given here. [ ]: non-standard residue; d: D form. Nle = CCCC[C@H](N)C(=O)O

Experiments:
HIV-1IIIB = assay: HIV-1 antiviral assay in CEM-SS cells; format: cell-based
HCMV strain AD169 = format: cell-based; conditions: MRC-5 cells
[1] = test system: hepatitis B virus (HBV) ayw strain; format: cell-based; conditions: 10 micrograms per ml; HepG2-2.2.15 cells; six days
[2] = test system: Human Peripheral Blood Mononuclear Cells (PBMC), B cell proliferation; assay: B Cell Proliferation Assay (SAC plus Interleukin-2, 3H-thymidine); format: cell-based; conditions: 10 micrograms per ml; SAC plus Interleukin-2 stimulated PBMC; combination: 0.95 mole peptide 1 and 1.05 mole peptide 2
Method: Human Peripheral Blood Mononuclear Cells (PBMC) were obtained from normal human donors. […] 10^5/well PBMC were plated in 96-well microtiter plates and assayed in duplicate with the peptides. […] At the end of incubation time, the plates were harvested and the cells counted by liquid scintillation for the incorporation of ^3H-thymidine as a measure of B cell proliferation.

[3] = test system: Tumor Necrosis Factor-α (TNF-α); assay: Th1/Th2 Cytokine Profiling Assay: TNF-α; format: cell-based, Balb/c mice; conditions: 10 micrograms per ml; Ovalbumin-restimulated Balb/c spleen cells; 72 hours
Method: (§1) On day 50, spleens of the mice were harvested (3 weeks after last boost with Ovalbumin). […] Thereafter, additional Ovalbumin was added to the cells at 10 micrograms/ml for in vitro restimulation of the cells. 72 hours later, cell supernatants were harvested and assayed using the Becton Dickinson Mouse Th1/Th2 Cytokine CBA Kit. This kit can be used to measure Interleukin-2 (IL-2), Interleukin-4 (IL-4), Interleukin-5 (IL-5), Interferon-γ (IFN-γ), and Tumor Necrosis Factor-α (TNF-α) protein levels in a single sample.

Interferon-γ (IFN-γ) = assay: Th1/Th2 Cytokine Profiling Assay: IFN-γ; format: cell-based, Balb/c mice; conditions: 10 micrograms per ml; Ovalbumin-restimulated Balb/c spleen cells; 72 hours
Method: as §1

Interleukin-2 (IL-2) = assay: Th1/Th2 Cytokine Profiling Assay: IL-2; format: cell-based, Balb/c mice; conditions: 10 micrograms per ml; Ovalbumin-restimulated Balb/c spleen cells; 72 hours
Method: as §1

Interleukin-4 (IL-4) = assay: Th1/Th2 Cytokine Profiling Assay: IL-4; format: cell-based, Balb/c mice; conditions: 10 micrograms per ml; Ovalbumin-restimulated Balb/c spleen cells; 72 hours
Method: as §1

Interleukin-5 (IL-5) = assay: Th1/Th2 Cytokine Profiling Assay: IL-5; format: cell-based, Balb/c mice; conditions: 10 micrograms per ml; Ovalbumin-restimulated Balb/c spleen cells; 72 hours
Method: as §1

[4] = test system: Primary Human endothelial cells (HUVEC); assay: Endothelial Cell Migration Assay; format: cell-based; conditions: 10 micrograms per ml, 22 hours, combination peptide 1:peptide 2 0.95 mole:1.05 mole
Method: Primary Human endothelial cells (HUVEC) were seeded in insert chambers with 3 micrometer pore size of multi-transwell plate for 6 hours at 37° C. in Endothelial Cell Basal Medium (EBM) supplemented with 0.1% bovine serum albumin. […] Images of 3 fields per insert were taken and the number of migrated cells per field were quantified using the ImageProPlus software. Data were analyzed for the average number of the migrated cells and standard deviation of six data points for each treatment condition. […] Statistic p values were computed using the Student's t-test.

HUVEC = assay: Endothelial Tube Formation Assay; format: cell-based, human; conditions: 10 micrograms per ml, 20 hours, combination peptide 1:peptide 2 0.95 mole:1.05 mole
Method: The endothelial tube formation assay is based on the ability of endothelial cells to form three-dimensional capillary-like tubular structures when cultured on a gel of basement membrane extract. The endothelial tube formation assay represents a powerful model for studying inhibition and induction of angiogenesis. […] Positive control was vehicle only. The endothelial cells were allowed to form tubes foe 20 hours and were then examined under an inverted fluorescent microscope. Duplicate wells for each treatment were photographed and quantitatevily analyzed for an average tubule length using image analysis software ImageProPlus. Raw data were expressed as average tubule lengths in pixels ±standard deviation. Statistic p values were computed using the Student's t-test.

Cc1cn([C@H]2C[C@H](N=[N+]=[N-])[C@@H](CO)O2)c(=O)[nH]c1=O [AZT]
antiviral activity (positive control compounds) (HIV-1IIIB): expected levels of antiviral activity

Nc1nc(O)c2ncn(COC(CO)CO)c2n1 [Ganciclovir, reference compound]
antiviral activity (positive control compound) (HCMV strain AD169; positive control, HCMV AD169): expected levels of antiviral activity

CC(C)(C)NC(=O)[C@@H]1CN(Cc2cccnc2)CCN1C[C@@H](O)C[C@@H](Cc1ccccc1)C(=O)N[C@H]1c2ccccc2C[C@H]1O [indinavir]
antiviral activity (positive control compounds) (HIV-1IIIB): expected levels of antiviral activity

Tyr-Gly-Gly-Phe-Met-Thr-Ser-Glu-Lys-Ser-Gln-Thr-Pro-Leu-Val-Thr-Leu-Phe-Lys-Asn-Ala-Ile-Ile-Lys-Asn-Ala-Tyr-Lys-Lys-Gly-Glu-OH [Peptide 2]
inhibition of HBV replication on tested liver cells [1]: no effect | inhibition of HCMV plaque formation as compared to the virus control (HCMV strain AD169; 10 micrograms per ml, 7-10 days): did not inhibit | induction of the proliferation of specifically stimulated human B-cells [2]: 22.7% | TNF-a spleen cells; TH1 response (% of control) [3]: 110.7 % of control | IFNγ spleen cells; TH1 response (% of control) (Interferon-γ (IFN-γ)): 106.6 % of control | IL-2 spleen cells (% of control) (Interleukin-2 (IL-2)): 163.9 % of control | IL-4 spleen cells; TH2 response (% of control) (Interleukin-4 (IL-4)): 100.6 % of control | IL-5 spleen cells; TH2 response (% of control) (Interleukin-5 (IL-5)): 103.3 % of control | inhibition of the migration of human endothelial cells [4]: 29% | inhibition of the tube formation of endothelial cells (HUVEC): 38%

[dF]HLLREVLE[Nle]ARAEQLAQEAHKNRKL[Nle]EII-NH2 (lactam 19-22) [Peptide 1]
induction of the proliferation of specifically stimulated human B-cells [2]: 11.1% | TNF-a spleen cells; TH1 response (% of control) [3]: 120.0 % of control | IFNγ spleen cells; TH1 response (% of control) (Interferon-γ (IFN-γ)): 137.6 % of control | IL-2 spleen cells (% of control) (Interleukin-2 (IL-2)): 210.4 % of control | IL-4 spleen cells; TH2 response (% of control) (Interleukin-4 (IL-4)): 114.4 % of control | IL-5 spleen cells; TH2 response (% of control) (Interleukin-5 (IL-5)): 90.1 % of control | inhibition of the migration of human endothelial cells [4]: 13% | inhibition of the tube formation of endothelial cells (HUVEC): 31%
